Experimental data reported in PubChem BioAssay AID248 (DTP/NCI, 2004).
“And” between values parts separate entries of the source, which are not always exact repeats. Equal values may be shown once. Inconclusive results and toxic doses are left out. No stated cut-off is given here; in the data, active means T/C of 150% or more; inactive means T/C below 125%.

System: L1210 leukemia ip in BDF1 mice, survival T/C
Test: NCI In Vivo Anticancer Drug Screen. Data for tumor model L1210 Leukemia (intraperitoneal) in B6D2F1 (BDF1) mice
Details: endpoint: mean survival time, higher = longer survival
Method in brief: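 Read-out is survival time, reported as the treated-group measurement over the vehicle-control measurement.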

[1] = dose: 100.0 mg/kg/injection, schedule: Q04DX002 (ip), vehicle: saline with Tween-80
[2] = dose: 200.0 mg/kg/injection, schedule: Q04DX002 (ip), vehicle: saline with Tween-80
[3] = dose: 400.0 mg/kg/injection, schedule: Q04DX002 (ip), vehicle: saline with Tween-80
[4] = dose: 6.25 mg/kg/injection, schedule: Q01DX009 (ip), vehicle: saline with Tween-80
[5] = dose: 12.5 mg/kg/injection, schedule: Q01DX009 (ip), vehicle: saline with Tween-80
[6] = dose: 25.0 mg/kg/injection, schedule: Q01DX009 (ip), vehicle: saline with Tween-80
[7] = dose: 50.0 mg/kg/injection, schedule: Q01DX009 (ip), vehicle: saline with Tween-80
[8] = dose: 100.0 mg/kg/injection, schedule: Q01DX001 (ip), vehicle: carboxymethylcellulose (CMC)
[9] = dose: 200.0 mg/kg/injection, schedule: Q01DX001 (ip), vehicle: carboxymethylcellulose (CMC)
[10] = dose: 400.0 mg/kg/injection, schedule: Q01DX001 (ip), vehicle: carboxymethylcellulose (CMC)
[11] = dose: 100.0 mg/kg/injection, schedule: Q01DX009 (ip), vehicle: saline with Tween-80
[12] = dose: 100.0 mg/kg/injection, schedule: Q04DX003 (ip), vehicle: saline with Tween-80
[13] = dose: 200.0 mg/kg/injection, schedule: Q04DX003 (ip), vehicle: saline with Tween-80
[14] = dose: 400.0 mg/kg/injection, schedule: Q04DX003 (ip), vehicle: saline with Tween-80
[15] = dose: 100.0 mg/kg/injection, schedule: Q04DX003 (ip), vehicle: Klucel (hydroxypropylcellulose) (HPC)
[16] = dose: 200.0 mg/kg/injection, schedule: Q04DX003 (ip), vehicle: Klucel (hydroxypropylcellulose) (HPC)
[17] = dose: 400.0 mg/kg/injection, schedule: Q04DX003 (ip), vehicle: Klucel (hydroxypropylcellulose) (HPC)
[18] = dose: 100.0 mg/kg/injection, schedule: Q01DX009 (ip), vehicle: Klucel (hydroxypropylcellulose) (HPC)
[19] = dose: 200.0 mg/kg/injection, schedule: Q01DX009 (ip), vehicle: Klucel (hydroxypropylcellulose) (HPC)
[20] = dose: 400.0 mg/kg/injection, schedule: Q01DX009 (ip), vehicle: Klucel (hydroxypropylcellulose) (HPC)

Measured: T/C

CCOc1ccc(OC/C=C(\C)CC/C=C(/C)CC)cc1
inactive: [1] 96 % of control | [2] 99 % of control | [3] 108 % of control

O=[N+]([O-])CC(OCCCO)C(Cl)(Cl)Cl (stereo not drawn)
inactive: [4] 92 % of control | [5] 101 % of control | [6] 104 % of control | [7] 92 % of control and 91 % of control

CC(C)=CCC(=O)OC(Cc1ccccc1)(c1ccccc1)C(C)CN(C)C (stereo not drawn)
inactive: dose: 25.0 mg/kg/injection, schedule: Q01DX009 (ip), vehicle: saline 101 % of control | dose: 50.0 mg/kg/injection, schedule: Q01DX009 (ip), vehicle: saline 98 % of control | dose: 100.0 mg/kg/injection, schedule: Q01DX009 (ip), vehicle: saline 98 % of control

CN1C(=O)N(C)C2(CCCC2)C1=O
inactive: [8] 107 % of control | [9] 104 % of control | [10] 104 % of control

COc1ccccc1/C=C/C(=O)c1ccccc1
inactive: [11] 89 % of control | [12] 98 % of control | [13] 94 % of control | dose: 400.0 mg/kg/injection, schedule: Q01DX009 (ip), vehicle: saline with Tween-80 89 % of control | [14] 96 % of control

O=C1Nc2c(ccc3ccccc23)/C1=C/c1ccccc1
inactive: [12] 100 % of control | [13] 100 % of control | [14] 97 % of control

CCOC(=O)CCSCCC(=O)OCC
inactive: dose: 100.0 mg/kg/injection, schedule: Q01DX001 (ip), vehicle: saline with Tween-80 109 % of control | dose: 200.0 mg/kg/injection, schedule: Q01DX001 (ip), vehicle: saline with Tween-80 101 % of control | dose: 400.0 mg/kg/injection, schedule: Q01DX001 (ip), vehicle: saline with Tween-80 101 % of control

CCCCCc1[nH]c(=O)[nH]c(=O)c1S(=O)(=O)N1CCCCC1
inactive: dose: 100.0 mg/kg/injection, schedule: Q01DX001 (ip), vehicle: Klucel (hydroxypropylcellulose) (HPC) 107 % of control | dose: 200.0 mg/kg/injection, schedule: Q01DX001 (ip), vehicle: Klucel (hydroxypropylcellulose) (HPC) 97 % of control | dose: 400.0 mg/kg/injection, schedule: Q01DX001 (ip), vehicle: Klucel (hydroxypropylcellulose) (HPC) 110 % of control

[N-]=[N+]=NCCCCCCCCCCN=[N+]=[N-]
inactive: dose: 75.0 mg/kg/injection, schedule: Q04DX003 (ip), vehicle: saline 102 % of control | dose: 150.0 mg/kg/injection, schedule: Q04DX003 (ip), vehicle: saline 101 % of control | dose: 300.0 mg/kg/injection, schedule: Q04DX003 (ip), vehicle: saline 91 % of control

CCCCCCCCCCCCCCCCS(=O)(=O)N/N=C/c1ccc2c(c1)OCO2
inactive: [8] 101 % of control | [9] 98 % of control | [10] 104 % of control

Nc1ccc(S(=O)(=O)F)cc1N
inactive: dose: 100.0 mg/kg/injection, schedule: Q01DX001 (ip), vehicle: acetone 101 % of control | dose: 100.0 mg/kg/injection, schedule: Q01DX009 (ip), vehicle: acetone 96 % of control | dose: 200.0 mg/kg/injection, schedule: Q01DX001 (ip), vehicle: acetone 101 % of control | dose: 200.0 mg/kg/injection, schedule: Q01DX009 (ip), vehicle: acetone 93 % of control | dose: 400.0 mg/kg/injection, schedule: Q01DX001 (ip), vehicle: acetone 103 % of control

COc1cc(C(C)S(=O)(=O)c2ccc(C)cc2)ccc1O (stereo not drawn)
inactive: [8] 89 % of control | [9] 93 % of control | [10] 93 % of control

CCOC(=O)C1=CC(=O)C(C(=O)OCC)=CC1=O
inactive: [8] 98 % of control | [9] 98 % of control | [10] 104 % of control

CCN1C(=O)C(Cl)=C(Cl)C1=O
inactive: dose: 1.56 mg/kg/injection, schedule: Q01DX009 (ip), vehicle: saline with Tween-80 94 % of control | dose: 3.13 mg/kg/injection, schedule: Q01DX009 (ip), vehicle: saline with Tween-80 91 % of control | [4] 92 % of control and 87 % of control

Oc1ccc(Cl)cc1C=Nc1ccc2c(c1)OCO2
inactive: [1] 91 % of control | [2] 88 % of control | [3] 91 % of control

O=C(O)c1cc(CBr)ccc1CBr
inactive: [4] 100 % of control | dose: 6.25 mg/kg/injection, schedule: Q04DX003 (ip), vehicle: saline with Tween-80 93 % of control | [5] 103 % of control | dose: 12.5 mg/kg/injection, schedule: Q04DX003 (ip), vehicle: saline with Tween-80 94 % of control | [6] 95 % of control | dose: 25.0 mg/kg/injection, schedule: Q04DX003 (ip), vehicle: saline with Tween-80 102 % of control

c1ccc(NC23CC4CC(CC(C4)C2)C3)cc1
inactive: [7] 102 % of control | [11] 97 % of control | [12] 94 % of control | dose: 200.0 mg/kg/injection, schedule: Q01DX009 (ip), vehicle: saline with Tween-80 88 % of control | [13] 92 % of control | dose: 300.0 mg/kg/injection, schedule: Q01DX009 (ip), vehicle: saline with Tween-80 98 % of control

Cc1[nH]c(=S)[nH]c(=O)c1CCC(C)C
inactive: [15] 113 % of control | [16] 100 % of control | [17] 106 % of control

COc1ccc2c(c1C)OC(C)C2=O (stereo not drawn)
inactive: [18] 93 % of control | [15] 101 % of control | [19] 92 % of control | [16] 104 % of control | [20] 104 % of control | [17] 97 % of control

O=C(O)c1c(Cl)nsc1Cl
inactive: [18] 98 % of control | [19] 98 % of control

O=C(O)c1cccnc1C(=O)O.[Cu+2]
inactive: dose: 3.12 mg/kg/injection, schedule: Q01DX009 (ip), vehicle: Klucel (hydroxypropylcellulose) (HPC) 107 % of control | dose: 6.25 mg/kg/injection, schedule: Q01DX009 (ip), vehicle: Klucel (hydroxypropylcellulose) (HPC) 94 % of control | dose: 6.25 mg/kg/injection, schedule: Q04DX003 (ip), vehicle: Klucel (hydroxypropylcellulose) (HPC) 94 % of control and 95 % of control | dose: 12.5 mg/kg/injection, schedule: Q01DX001 (ip), vehicle: other 108 % of control | dose: 12.5 mg/kg/injection, schedule: Q01DX009 (ip), vehicle: Klucel (hydroxypropylcellulose) (HPC) 92 % of control | dose: 12.5 mg/kg/injection, schedule: Q04DX003 (ip), vehicle: Klucel (hydroxypropylcellulose) (HPC) 101 % of control and 97 % of control | dose: 25.0 mg/kg/injection, schedule: Q01DX001 (ip), vehicle: other 89 % of control | dose: 25.0 mg/kg/injection, schedule: Q04DX003 (ip), vehicle: Klucel (hydroxypropylcellulose) (HPC) 95 % of control

CC(C)(CN)CCBr
inactive: dose: 50.0 mg/kg/injection, schedule: Q01DX001 (ip), vehicle: saline 95 % of control | dose: 100.0 mg/kg/injection, schedule: Q01DX001 (ip), vehicle: saline 88 % of control | dose: 200.0 mg/kg/injection, schedule: Q01DX001 (ip), vehicle: saline 101 % of control | dose: 400.0 mg/kg/injection, schedule: Q01DX001 (ip), vehicle: saline 92 % of control

COc1ccc(C)cc1NC(=O)Nc1cccc(F)c1
inactive: [18] 106 % of control | [19] 111 % of control | [20] 106 % of control
